# Source: PMC6317155, “Identification of Small Peptides that Inhibit NADPH Oxidase (Nox2) Activation” (Antioxidants, 2018)
# Columns and labels:
# [1] = target: T1, aiPLA2 activity of recombinant human Prdx6 (Homo sapiens, UniProt P30041); assay: aiPLA2 (PLA2) activity of recombinant human Prdx6 in vitro, 3H-DPPC liposome substrate; type: biochemical; conditions: for Activity (aiPLA2 of recombinant hPrdx6), human-derived peptides: deletions from 16-aa human-derived SP-A peptide, no-peptide control 92.0; for Activity (aiPLA2 of recombinant hPrdx6), human-derived peptides / Activity (aiPLA2 of recombinant hPrdx6), deletion from C-term / Activity (aiPLA2 of recombinant hPrdx6), deletion from N-term: one assay done in duplicate; for Activity (aiPLA2 of recombinant hPrdx6), deletion from C-term: peptides deleted from C-terminus of 16-aa rat-derived SP-A peptide, and scrambled peptide; for Activity (aiPLA2 of recombinant hPrdx6), deletion from C-term / Activity (aiPLA2 of recombinant hPrdx6), deletion from N-term: no-peptide control 94.8; for Activity (aiPLA2 of recombinant hPrdx6), deletion from N-term: peptides deleted from N-terminus of 16-aa rat-derived SP-A peptide, 3H-DPPC liposomes, 60 min
# T1 sequence (P30041 1-224): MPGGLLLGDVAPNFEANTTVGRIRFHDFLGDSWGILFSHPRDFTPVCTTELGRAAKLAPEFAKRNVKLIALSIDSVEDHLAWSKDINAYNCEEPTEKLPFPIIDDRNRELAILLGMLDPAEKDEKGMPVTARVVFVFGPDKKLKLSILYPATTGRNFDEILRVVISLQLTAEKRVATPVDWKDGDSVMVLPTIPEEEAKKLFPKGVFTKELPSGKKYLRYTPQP
# Protocol: (§1) The PLA2 activity of Prdx6 was measured as described previously. The substrate was dipalmitoylphosphatidylcholine (DPPC) with ^3H-9,10-palmitate in the sn-2 position of DPPC incorporated into lung surfactant-like liposomes as described above; substrate was incubated with enzyme for 60 min and activity was calculated from the liberation of ^3H-palmitate as measured by scintillation counting.
# The effect of the PIP peptides on the aiPLA2 activity of human recombinant Prdx6 was determined by in vitro assay; the effective concentration of inhibitor was corrected for purity of the PIP preparation. Saturating concentrations of all three peptides (PIP-1, PIP-2, PIP-3) inhibited aiPLA2 activity by ~70% (Figure 2). The basis for the remaining 30% of activity that was not inhibited is unclear.
# [2] = target: T2, PLA2 activity of Prdx6 (aiPLA2) (Mus musculus, UniProt O08709, D140A); assay: PLA2 activity of lung homogenate at pH 4 without Ca2+ (aiPLA2), PIP-2 added to the assay; type: biochemical; conditions: D140A-Prdx6 knock-in mouse lung homogenate, no Ca2+; no inhibitor 0.2 ± 0.03; mean ± range, n = 2
# T2 construct: from tissue; host or cells: mouse (C57Bl/6) lung homogenate
# T2 sequence (O08709 2-224 D140A): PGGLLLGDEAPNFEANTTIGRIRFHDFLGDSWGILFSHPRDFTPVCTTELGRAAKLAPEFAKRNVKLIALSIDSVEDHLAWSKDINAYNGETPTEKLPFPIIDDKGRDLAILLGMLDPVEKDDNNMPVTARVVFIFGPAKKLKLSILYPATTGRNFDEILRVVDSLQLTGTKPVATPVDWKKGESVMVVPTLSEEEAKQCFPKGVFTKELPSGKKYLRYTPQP
# Protocol: as §1
# (§2) Lung cells, like those of other organs, have multiple PLA2 enzymes. We evaluated the specificity of PIP-2 for inhibition of Prdx6 by measuring aiPLA2 activity in the lung homogenate of wild type and D140A-Prdx6 mutant mice. […] Measurement of PLA2 activity at pH 4 in the absence of Ca^2+ is relatively specific for the PLA2 activity of Prdx6 (aiPLA2). This activity was inhibited by 91% following addition of PIP-2 to the assay of the lung homogenate (Table 6). Although Prdx6 has relatively little PLA2 activity when measured at pH 7, other lung PLA2 enzymes, some of which are Ca^2+-dependent for activity, show activity at neutral pH; this activity was not affected by mutation of D140 in Prdx6 (Table 6). Unlike the effect of PIP-2 on aiPLA2 activity at pH 4, the addition of PIP-2 had no effect on activity of the lung PLA2 enzymes that are active at pH 7. Thus, aiPLA2 appears to be the only PLA2 enzyme, at least in the lung, that is inhibited by PIP-2.
# [3] = target: T3, PLA2 activity of Prdx6 (aiPLA2) (Mus musculus, UniProt O08709); assay: as above; type: biochemical; conditions: wild type mouse lung homogenate, no Ca2+; no inhibitor 8.7 ± 0.16; mean ± range, n = 2
# T3 construct: from tissue; host or cells: mouse (C57Bl/6) lung homogenate
# T3 sequence (O08709 2-224): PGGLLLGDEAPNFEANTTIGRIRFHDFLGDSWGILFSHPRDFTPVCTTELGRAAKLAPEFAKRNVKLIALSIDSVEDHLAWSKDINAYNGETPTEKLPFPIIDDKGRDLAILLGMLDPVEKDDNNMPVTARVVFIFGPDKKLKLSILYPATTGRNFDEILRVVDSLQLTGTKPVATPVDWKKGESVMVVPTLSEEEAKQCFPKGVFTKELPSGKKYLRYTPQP
# Protocol: as §1, §2
# [4] = system: lung PLA2 enzymes that are active at pH 7; assay: PLA2 activity of lung homogenate at pH 7 with Ca2+ (other lung PLA2 enzymes), PIP-2 added to the assay; type: biochemical, mouse
# Protocol: as §1, §2
# [5] = target: T4, lung aiPLA2 activity (Mus musculus, UniProt O08709); assay: Lung aiPLA2 activity after a single IT or IV dose in mice in vivo; conditions: single dose in liposomes, estimated
# T4 construct: from tissue; host or cells: mouse (C57Bl/6) lung homogenate
# T4 sequence (O08709 1-224): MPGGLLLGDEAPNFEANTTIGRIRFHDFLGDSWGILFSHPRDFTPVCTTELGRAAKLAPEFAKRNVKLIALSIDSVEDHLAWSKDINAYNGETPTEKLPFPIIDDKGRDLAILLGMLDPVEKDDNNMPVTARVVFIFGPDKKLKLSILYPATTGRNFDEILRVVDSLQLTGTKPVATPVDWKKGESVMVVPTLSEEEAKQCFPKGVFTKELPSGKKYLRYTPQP
# Protocol: For administration to mice, peptides were incorporated into liposomes that were prepared as previously described. Liposome composition was dipalmitoylphosphatidylcholine (DPPC): egg phosphatidylcholine: phosphatidylglycerol: cholesterol in the molar ratio 50:25:10:15. To measure the in vivo effect of the peptides, mice were injected with PIP-2 by either the intratracheal (IT) or the intravenous (IV) route and were sacrificed at intervals; lungs were removed from mice and homogenized for measurement of aiPLA2 activity.
# as §1
# To determine the effect and duration of a single dose of PIP-2 on aiPLA2 activity of mouse lungs in vivo, mice were injected with PIP-2 in liposomes by either the intratracheal (IT) or the intravenous (IV) route; individual lungs were removed at intervals, homogenized, and assayed for aiPLA2 activity. […]
# Figure 4 Persistence and stability of PIP-2 in vivo. […] Lungs were harvested at intervals between 4 and 72 h after the PIP-2 administration, homogenized, and analyzed for aiPLA2 activity. […]
# [6] = target: T1, aiPLA2 activity of recombinant human Prdx6; assay: Chemical stability of dry powder on laboratory shelf, read out as inhibition of aiPLA2 activity; type: physicochemical; conditions: room temperature, nine months, data not shown
# From the text: These peptides have a molecular mass of 1156–1178 with a predicted isoelectric point in the slightly basic range. Each of the three peptides contains four hydrophobic amino acid residues, with two of those on the same surface, and one negatively charged hydrophilic aa. The PIP-2 sequence has three while PIPs-1 and -3 have only two positively charged aa. PIP-1 is slightly more hydrophobic than the other two peptides but, in our experience, all three peptides readily dissolve in aqueous solution. […] No antigenic determinants were identified in these peptides as determined by the free on-line program provided by the Immunomedicine Group of the Universidad Complutense (Madrid, Spain). The chemical stability of PIP-2 was tested by placing the dry powder on the laboratory shelf at room temperature; its inhibition of the aiPLA2 activity of recombinant human Prdx6 was unchanged when measured after nine months of shelf storage indicating good stability of the peptide as a dry powder (data not shown); stability of the other peptides was not tested.
# [7] = target: T5, aiPLA2 activity of lung homogenate (Mus musculus, UniProt O08709); assay: aiPLA2 activity of homogenate of isolated mouse lungs perfused with PIP-2; conditions: inferred from lack of effect without liposomal carrier in lungs
# T5 construct: from tissue; host or cells: mouse (C57Bl/6) lung homogenate
# T5 sequence (O08709 1-224): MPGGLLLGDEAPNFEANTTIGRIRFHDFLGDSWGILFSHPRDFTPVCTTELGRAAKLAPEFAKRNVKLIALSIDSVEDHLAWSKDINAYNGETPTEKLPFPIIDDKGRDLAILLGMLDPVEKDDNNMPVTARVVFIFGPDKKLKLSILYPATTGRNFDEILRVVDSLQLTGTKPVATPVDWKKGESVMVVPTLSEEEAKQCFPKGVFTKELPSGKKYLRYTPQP
# Protocol: as §1
# To confirm the requirement for liposomes as a delivery vehicle, lungs were perfused for 15 min with PIP-2 incorporated or not into liposomes, then perfused with fresh medium to clear extracellular PIP-2, and then homogenized and assayed for aiPLA2 activity. PIP-2 administered without liposomes had no effect on aiPLA2 activity of the lung homogenate while PIP-2 in liposomes inhibited activity by ~80% (Table 5).
sequence,measurement,setting,value
DEELQATLHDFRHQIL [16 aa human SP-A-derived peptide],"Activity (aiPLA2 of recombinant hPrdx6), human-derived peptides",[1],45.0 nmol/min/mg Prot.
DEELQTEL [8-aa C-terminal deletion of rat 16-aa peptide],"Activity (aiPLA2 of recombinant hPrdx6), deletion from C-term",[1],93.6 nmol/min/mg Prot.
DEELQTELYEIKHQ [14-aa C-terminal deletion of rat 16-aa peptide],"Activity (aiPLA2 of recombinant hPrdx6), deletion from C-term",[1],102 nmol/min/mg Prot.
DEELQTELYEIKHQIL,"Activity (aiPLA2 of recombinant hPrdx6), deletion from C-term",[1],32.0 nmol/min/mg Prot.
same,"Activity (aiPLA2 of recombinant hPrdx6), deletion from N-term",[1],32.0 nmol/min/mg Prot.
ELQTELYEIKHQIL [14-aa N-terminal deletion of rat 16-aa peptide],"Activity (aiPLA2 of recombinant hPrdx6), deletion from N-term",[1],33.2 nmol/min/mg Prot.
ELYEIKHQI [9-aa peptide lacking the C-terminal Leu],"Activity (aiPLA2 of recombinant hPrdx6), deletion from C-term",[1],89.6 nmol/min/mg Prot.
ELYEIKHQIL [10-aa N-terminal deletion of rat 16-aa peptide],"Activity (aiPLA2 of recombinant hPrdx6), deletion from N-term",[1],28.6 nmol/min/mg Prot.
"LELDEEITEYQKQLHI [Scrambled peptide, scrambled 16-aa control peptide, reference compound]","Activity (aiPLA2 of recombinant hPrdx6), deletion from C-term",[1],93.5 nmol/min/mg Prot.
LHDFRHQIL [PIP-2],"PLA2 activity, pH 4, D140A-Prdx6",[2],0.2 ± 0.06 nmol/min/mg Prot.
same,"PLA2 activity, pH 4, WT",[3],1.6 ± 0.10 nmol/min/mg Prot.
same,"PLA2 activity, pH 7 + Ca2+, D140A-Prdx6","[4]; D140A-Prdx6 knock-in mouse lung homogenate, no inhibitor 8.3 ± 0.26, mean ± range, n = 2",8.5 ± 0.10 nmol/min/mg Prot.
same,Effect on activity of lung PLA2 enzymes active at pH 7,[4]; PIP-2 added to assay of lung homogenate,no effect
same,"Activity (aiPLA2 of recombinant hPrdx6), human-derived peptides",[1],29.9 nmol/min/mg Prot.
same,Inhibition of aiPLA2 activity at saturating concentrations of peptide,"[1]; recombinant human Prdx6, Figure 2, mean + SEM, n = 3",~ 70%
same,Concentration of peptide for inhibition of aiPLA2 activity by 50%,"[1]; recombinant human Prdx6, concentration corrected for purity of the PIP preparation, Figure 2, n = 3",~ 6.6 µg/mg Prdx6
same,Half-time for recovery of lung aiPLA2 activity (decrease of in vivo inhibition),[5],~ 50 h
same,Chemical stability: inhibition of aiPLA2 activity after shelf storage,[6],unchanged
same,Ability to cross the cell membrane,[7],not able to cross the cell membrane
